The source of these data is patent US20220184037A1, “PHARMACEUTICAL AGENTS TARGETING CANCER STEM CELLS” (THE JOHNS HOPKINS UNIVERSITY, priority 2020, published 2022).

Series [1] can be described thus: Body weight of treated mice. It counts as in vivo. Particulars: mouse, in vivo. The procedure:
For therapeutic efficacy, mice were randomly assigned into experimental groups (five mice per group) when tumors reached a volume of […]. For celecoxib and/or VP treatment, celecoxib (5 mg/kg) was administered via intraperitoneal (i.p.) injection once a day (17), and VP (50 mg/kg) was administered via i.p. every other day (18). EP4 antagonist ONO-AE3-208 (10 mg/kg) was administered via i.p. once a day (19). Control was applied with same volume (10 μL per injection) of 10% dimethyl sulphoxide in 1% TWEEN 80 (Sigma-Aldrich). For GEM and CDDP (GC) treatment (i.p.), CDDP (6 mg/kg) was only applied after the first GEM (60 mg/kg) treatment on day 2, followed by three consecutive treatments of GEM on day 5, 8 and 11 (17). The next cycle was started on day 18, and the treatment was continued until tumor reached 2 cm in diameter. For erlotinib treatment, the mice were treated once a day, 6 days per week, by oral gavage with erlotinib (100 mg/kg) or control (PBS containing 0.5% methyl cellulose (Sigma-Aldrich) and 0.1% TWEEN 80) (20). Tumor size was measured at least every three days. Therapeutic efficacy was assessed using percentage change after treatment related to tumor size before treatment. […]

For another series, the system named is COX2. As to the kind of experiment: Western blotting of COX2 expression in bladder cancer cells. It counts as cell-based, human. The procedure: (§1) Whole cell lysates were extracted using RIPA buffer (Thermo Scientific) supplemented with 10 μL/mL Halt™ Protease Inhibitor Cocktail Kit (Life Technologies) and 30 μL/mL Halt™ Phosphatase Inhibitor Cocktail Kit (Life Technologies). The protein concentrations were determined using a Pierce™ BCA Protein Assay Kit (Life Technologies), and the protein were separated on. NuPAGE 4-12% Bis-Tris Gel (Life Technologies) according to the manufacturer's protocol. COX2 (D5H5), NANOG (D73G4), OCT4 (D7O5Z), CD133 (A3G6K), Snail (C15D3), ZEBI (D80D3), Vimentin (D21H3), CDH2 (D4R1H), CDH1 (24E10), p-EGFR (D7A5), EGFR (D38B1), p-AKT (D9E), AKT (cat #, 9272), p-ERK (D13.14.4E), ERK (137F5), p-YAP1 (D9W2I), p-Src (cat #, 2101), Src (36D10), DNMT1 (D63A6), DNMT3A (D23G1), and DNMT3B (D7070) antibodies were obtained from Cell Signaling Technology (Danvers, Mass., USA), except for SOX2 (EPR3131; Abeam, Cambridge, USA), YAP1 (ab52771; Abeam), CD24 (cat #, AF5247-SP; R&D Systems, Minneapolis USA) and β-actin (A2228; Sigma-Aldrich). Secondary horseradish peroxidase (HRP)-conjugated antibodies were obtained from Cell Signaling Technology, and chemiluminescent detection of HRP-labeled antibodies was performed using Amersham ECL Prime Western Blotting Detection Reagent (GE Healthcare, Piscataway, USA). As loading control, β-actin was used.

The next series concerns SOX2. As to the kind of experiment: Western blotting / flow cytometry of SOX2 expression in bladder cancer cells. It counts as cell-based, human. As for the experimental part:
as §1
For extracellular staining, cells (1×10^6/100 μL stain buffer) were incubated with PE-Vio770-conjugated anti-human CD133 (293C3; Miltenyi Biotec, Auburn, USA) or PE-conjugated anti-human CD24 antibody (cat #, 560991; BD Biosciences) for 30 min at 4° C. in dark. PE-Vio770-conjugated anti-IgG1κ Isotype (cat #, 130-098-563; Miltenyi Biotec) and PE-conjugated IgG2a, κ Isotype (cat #, 555574; BD Biosciences) were used as control for CD133 and CD24 staining, respectively. Staining for intracellular SOX2 was carried out using the BD Cytofix/Cytopem Fixation/Permeabilization Kit (BD Biosciences) according to manufacturer's protocol. The cells were incubated with Alexa Fluor 647-conjugated anti-SOX2 antibody (cat #, 560302; BD Biosciences) for 40 min at 4° C. in dark. Alexa Fluor 647-conjugated anti-IgG2a, κ Isotype (cat #, 558053; BD Biosciences) was used as control. Data were acquired on a BD FACSCalibur flow cytometer (BD Biosciences) using BD CellQuest Pro software (BD Biosciences) and analyzed with FlowJo software v10.1 (Tree Star, Ashland, USA).
(In western blotting, separated proteins are transferred to a membrane and probed.)

A further series concerns YAP1. As to the kind of experiment: Western blotting of YAP1 expression in bladder cancer cells. Type of series: cell-based, human. The procedure: as §1
Series [2] has as its system bladder cancer cells (urothelial CSCs). As to the kind of experiment: Sphere formation assay. Particulars: for sphere-forming ability / sphere formation: COX2 inhibitor or EP4 antagonist alone. Type of series: cell-based, human. As for the experimental part:
Sphere formation was induced by culturing cells (2×10^4/well) in […] F12 50/50 Mix (Mediatech) supplemented with B-27 (Life Technologies), 20 ng/mL FGF-basic (Peprotech), 20 ng/mL EGF (Peprotech). Cell culture was performed in ultra-low attachment 6 well plates (Corning, Lowell, USA) for 10 days. The medium was replaced every other day. Sphere formation was evaluated using the inverted phase-contrast microscope, and single sphere with a diameter larger than 100 gm was counted using NIS-Elements Microscope Imaging Software. To redifferentiate spheres, spheres were plated in standard growth medium with 10% FBS in dishes supporting cell attachment, and incubated for 7 days. For self-renewal assay, primary spheres were collected by gentle centrifugation (5 min at 400×g), dissociated with Stempro Accutase Cell Dissociation Reagent (Life Technologies), and mechanically disrupted with a pipette. The cell suspension was sieved through 40 μm cell strainer cap filter to achieve a single-cell suspension, and then equal numbers of alive cells were plated in ultralow attachment plates to generate the second spheres. Again, spheres were counted on day 14 and digested to generate the third Spheres. All the experiments were performed in triplicate and repeated at least three times.

For a further series, the system named is let-7. As to the kind of experiment: let-7 expression by Q-RT-PCR. It counts as cell-based, human. Particulars: parental or spheroid bladder cancer cells. The procedure:
(§2) Total RNA from cell lines was isolated using the RNeasy Plus Mini kit (Qiagen, Valencia, USA) according to the manufacturer's protocol. Total RNA extraction from bladder tissue was performed with the QIAzol Lysis Reagent (Qiagen) followed by phenol extraction and ethanol precipitation. Total RNA was eluted in DEPC treated water and stored at −80 ° C. Total RNA extraction from urine was performed using the MirVana miRNA Isolation Kit (Ambion, Austin, USA). These total RNA were converted to cDNA using the SuperScript III First-Strand Synthesis System (Life technologies, Carlsbad, USA), which was then used as a template for Q-RT-PCR. Q-RT-PCR was performed using the Fast SYBR Green Master Mix (Thermo Fisher Scientific, Waltham, USA) on a 7900HT Fast Real-Time PCR System (Life technologies) in triplicate. Micro RNA (miRNA) extraction was performed using the MirVana miRNA Isolation Kit, and was reverse transcribed using TaqMan reverse transcription kit (Applied Biosystems, Foster City, USA) and miRNA-specific RT primers provided with TaqMan microRNA assays (Applied Biosystems). Q-RT-PCR for miRNAs was performed using the TaqMan Universal PCR Master Mix according to the manufacturer's protocol. SDS software (Applied Biosystems) was used to determine cycle threshold (Ct) values. Expression level was quantified relative to β-actin for mRNA and RNU6B for miRNA using the 2-ΔΔCt method (12).
For demethylation, cells (1×10^6/T-75 flask) were treated with […] of the demethylating agent 5-Aza-dC (Sigma) dissolved in 50% acetic acid or were mock-treated with phosphate buffered saline (PBS) including the same amount of acetic acid every 24 hours for 5 days. When combined with the histone deacetylase inhibitor TSA (Sigma), 300 nmol/L TSA was added to the medium for the final 24 hours.

In series [3] the test system is panel of miRNAs in BFTC 905 cells. As to the kind of experiment: Expression of a panel of miRNAs. Particulars: addition of PGE2 to COX2 inhibitor. It counts as cell-based, human. The procedure:
as §2

Another series has as its system DNMT 1 and 3A. As to the kind of experiment: Western blotting of DNMTs. It counts as cell-based, human. Particulars: PGE2-treated cells. The procedure: as §1
In series [4] the test system is let-7 host gene MIRLET7BHG promoter. As to the kind of experiment: Bisulfite sequencing of let-7 host gene promoter methylation. Type of series: cell-based, human. The following applies: 10 μM celecoxib, 2 μM PGE2, or 5 μM 5-Aza-dC for 5 days. As for the experimental part: Cell pellets were digested with 1% sodium dodecyl sulfate and 50 μg/mL proteinase K (Roche, Nutley, USA) at 48° C. overnight. Isolation of genomic DNA from cell lines was performed with the phenol-chloroform extraction protocol followed by ethanol precipitation. Bisulfite treatment was conducted using an EpiTect Bisulfite K ft (QIAGEN, Valencia, USA), and was subsequently amplified via PCR using primers as shown in the following table. PCR products were purified using the QIAquick Gel Extraction kit (Qiagen), and sequenced by Genewiz DNA sequencing service (Genewiz, South Plainfield, USA). The data were analyzed using the Sequence Scanner v1.0 software (Life technologies). A methylation frequency of ≥50% of total CpG sites within the amplified region was considered “methylation-positive”. For demethylation, cells ([…]) dissolved in 50% acetic acid or were mock-treated with phosphate buffered saline (PBS) including the same amount of acetic acid every 24 hours for 5 days. When combined with the histone deacetylase inhibitor TSA (Sigma), 300 nmol/L TSA was added to the medium for the final 24 hours.

[5] abbreviates: COX2 inhibitor or EP4 antagonist alone (FIG. 2A-B, S7).
[6] abbreviates: addition of PGE2 to celecoxib treatment.

For `C=Cc1c(C)c2cc3nc(cc4[nH]c(cc5nc(cc1[nH]2)C(C)=C5CCC(=O)O)c(CCC(=O)OC)c4C)[C@@]1(C)C3=CC=C(C(=O)OC)[C@H]1C(=O)OC` [VP, 3-[(23S,24R)-14-ethenyl-5-(3-methoxy-3-oxopropyl)-22,23-bis(methoxycarbonyl)-4,10,15,24-tetramethyl-25,26,27,28-tetraazahexacyclo[16.6.1.1^3,6.1^8,11.1^13,16.0^19,24]octacosa-1,3,5,7,9,11(27),12,14,16,18(25),19,21-dodecaen-9-yl]propanoic acid], the body weight loss result in series [1] is listed as “did not observe body weight loss”. Besides, the COX2 expression result in the series with COX2 (VP alone) is given as “induced COX2 expression in a dose-dependent manner”. Also, in the series on SOX2 (VP alone), the “expression of SOX2 and its related molecules” value was “reduced expression”.

As for `CC(C)(C)n1nc(-c2ccc(Cl)cc2)c2c(N)ncnc21` [Src inhibitor, PP2], the “COX2 inhibitor-induced YAP1 expression” value with YAP1 (treatment with the Src inhibitor (FIG. S8H)) is recorded as “downregulated”.

For the compound `CCc1cccc2c3c([nH]c12)C(CC)(CC(=O)O)OCC3` (stereo not shown) [etodolac, Etodolac], the SOX2 expression entry in the series with SOX2 (setting [5]) is given as “dramatic reduction”. For the same compound, the “sphere-forming ability / sphere formation” value in series [2] is “dramatic reduction”.

Turning to `CCCCC[C@H](O)/C=C/[C@H]1[C@H](O)CC(=O)[C@@H]1C/C=C\CCCC(=O)O` [PGE2, Prostaglandin E2], in the series on let-7, the let-7 expression entry was “reduced its expression”. Besides, the “expression of several miRNAs” value in series [3] is “reduced these expression”. Further, the “DNMT 1 and 3A expression” value in the series on DNMT 1 and 3A was “upregulated”. For the same compound, the “promoter methylation of the let-7 host gene” value in series [4] is reported as “Promoter methylation of the let-7 host gene was observed”. Besides, the “celecoxib-repressed SOX2 expression” value in the series with SOX2 (setting [6]) is on record as “restored”. The celecoxib-repressed sphere-forming ability entry in series [2] (setting [6]) was “restored”.

For `N.N.[Cl][Pt][Cl]` [cisplatin, Cisplatin], the YAP1 expression entry in the series on YAP1 (CDDP chemotherapy alone) is listed as “overexpression”. The COX2 expression entry in the series with COX2 (CDDP chemotherapy alone) is on record as “overexpression”. In the series on SOX2 (CDDP chemotherapy alone), the SOX2 expression result is “overexpression”. Also, the sphere formation entry in series [2] (CDDP chemotherapy alone) was “increased sphere formation”.

For `CC(C(=O)Nc1cc(C#N)ccc1CCCC(=O)O)c1ccc(F)c2ccccc12` (stereo not shown) [EP4-specific antagonist, ONO-AE3-208], in the series with SOX2 (setting [5]), the SOX2 expression result is on record as “dramatic reduction”. Further, in [2], the “sphere-forming ability / sphere formation” value is given as “dramatic reduction”.

With “EGF: Recombinant human epidermal growth factor”, the YAP1 expression result in the series on YAP1 (EGF-stimulated EGFR signaling) was “increased”. For the same compound, the SOX2 expression entry with SOX2 (EGF-stimulated EGFR signaling) is listed as “increased”.

`Nc1ncn([C@H]2C[C@H](O)[C@@H](CO)O2)c(=O)n1` [5-Aza-dC, 5-Aza-2′-deoxycytidine]: the let-7 expression result in the series on let-7 is recorded as “restoration of let-7 expression”. Besides, the “promoter methylation of the let-7 host gene” value in [4] is listed as “demethylated”.
